# Target: T1, Human CaV2.2 channels (Homo sapiens, UniProt Q00975)
# T1 construct: expressed in transfected cells
# Assay: Fluorescent assay for CaV2.2 channels using potassium depolarization to induce channel opening (FLIPR, Fluo-4)
# Type: cell-based
# Settings: 3 μM test compound, 30 mM KCl, HEK293 cells stably expressing human CaV2.2; read-out: %-Inhib (CaV2.2) @3 μM @30 mM KCl
# Method in brief: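 HEK293 cells stably co-expressing CaV2.2 with α2δ and β subunits plus Kir2.3 were Fluo-4 loaded, then preincubated 15 min at 25 °C with compound in 30 mM KCl buffer, pH 7.4. Depolarization was by adding buffer containing 210 mM KCl. Inhibition was taken from baseline-normalized peak fluorescence amplitude (ex 480/em 535 nm).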
# T1 sequence (Q00975 whole entry): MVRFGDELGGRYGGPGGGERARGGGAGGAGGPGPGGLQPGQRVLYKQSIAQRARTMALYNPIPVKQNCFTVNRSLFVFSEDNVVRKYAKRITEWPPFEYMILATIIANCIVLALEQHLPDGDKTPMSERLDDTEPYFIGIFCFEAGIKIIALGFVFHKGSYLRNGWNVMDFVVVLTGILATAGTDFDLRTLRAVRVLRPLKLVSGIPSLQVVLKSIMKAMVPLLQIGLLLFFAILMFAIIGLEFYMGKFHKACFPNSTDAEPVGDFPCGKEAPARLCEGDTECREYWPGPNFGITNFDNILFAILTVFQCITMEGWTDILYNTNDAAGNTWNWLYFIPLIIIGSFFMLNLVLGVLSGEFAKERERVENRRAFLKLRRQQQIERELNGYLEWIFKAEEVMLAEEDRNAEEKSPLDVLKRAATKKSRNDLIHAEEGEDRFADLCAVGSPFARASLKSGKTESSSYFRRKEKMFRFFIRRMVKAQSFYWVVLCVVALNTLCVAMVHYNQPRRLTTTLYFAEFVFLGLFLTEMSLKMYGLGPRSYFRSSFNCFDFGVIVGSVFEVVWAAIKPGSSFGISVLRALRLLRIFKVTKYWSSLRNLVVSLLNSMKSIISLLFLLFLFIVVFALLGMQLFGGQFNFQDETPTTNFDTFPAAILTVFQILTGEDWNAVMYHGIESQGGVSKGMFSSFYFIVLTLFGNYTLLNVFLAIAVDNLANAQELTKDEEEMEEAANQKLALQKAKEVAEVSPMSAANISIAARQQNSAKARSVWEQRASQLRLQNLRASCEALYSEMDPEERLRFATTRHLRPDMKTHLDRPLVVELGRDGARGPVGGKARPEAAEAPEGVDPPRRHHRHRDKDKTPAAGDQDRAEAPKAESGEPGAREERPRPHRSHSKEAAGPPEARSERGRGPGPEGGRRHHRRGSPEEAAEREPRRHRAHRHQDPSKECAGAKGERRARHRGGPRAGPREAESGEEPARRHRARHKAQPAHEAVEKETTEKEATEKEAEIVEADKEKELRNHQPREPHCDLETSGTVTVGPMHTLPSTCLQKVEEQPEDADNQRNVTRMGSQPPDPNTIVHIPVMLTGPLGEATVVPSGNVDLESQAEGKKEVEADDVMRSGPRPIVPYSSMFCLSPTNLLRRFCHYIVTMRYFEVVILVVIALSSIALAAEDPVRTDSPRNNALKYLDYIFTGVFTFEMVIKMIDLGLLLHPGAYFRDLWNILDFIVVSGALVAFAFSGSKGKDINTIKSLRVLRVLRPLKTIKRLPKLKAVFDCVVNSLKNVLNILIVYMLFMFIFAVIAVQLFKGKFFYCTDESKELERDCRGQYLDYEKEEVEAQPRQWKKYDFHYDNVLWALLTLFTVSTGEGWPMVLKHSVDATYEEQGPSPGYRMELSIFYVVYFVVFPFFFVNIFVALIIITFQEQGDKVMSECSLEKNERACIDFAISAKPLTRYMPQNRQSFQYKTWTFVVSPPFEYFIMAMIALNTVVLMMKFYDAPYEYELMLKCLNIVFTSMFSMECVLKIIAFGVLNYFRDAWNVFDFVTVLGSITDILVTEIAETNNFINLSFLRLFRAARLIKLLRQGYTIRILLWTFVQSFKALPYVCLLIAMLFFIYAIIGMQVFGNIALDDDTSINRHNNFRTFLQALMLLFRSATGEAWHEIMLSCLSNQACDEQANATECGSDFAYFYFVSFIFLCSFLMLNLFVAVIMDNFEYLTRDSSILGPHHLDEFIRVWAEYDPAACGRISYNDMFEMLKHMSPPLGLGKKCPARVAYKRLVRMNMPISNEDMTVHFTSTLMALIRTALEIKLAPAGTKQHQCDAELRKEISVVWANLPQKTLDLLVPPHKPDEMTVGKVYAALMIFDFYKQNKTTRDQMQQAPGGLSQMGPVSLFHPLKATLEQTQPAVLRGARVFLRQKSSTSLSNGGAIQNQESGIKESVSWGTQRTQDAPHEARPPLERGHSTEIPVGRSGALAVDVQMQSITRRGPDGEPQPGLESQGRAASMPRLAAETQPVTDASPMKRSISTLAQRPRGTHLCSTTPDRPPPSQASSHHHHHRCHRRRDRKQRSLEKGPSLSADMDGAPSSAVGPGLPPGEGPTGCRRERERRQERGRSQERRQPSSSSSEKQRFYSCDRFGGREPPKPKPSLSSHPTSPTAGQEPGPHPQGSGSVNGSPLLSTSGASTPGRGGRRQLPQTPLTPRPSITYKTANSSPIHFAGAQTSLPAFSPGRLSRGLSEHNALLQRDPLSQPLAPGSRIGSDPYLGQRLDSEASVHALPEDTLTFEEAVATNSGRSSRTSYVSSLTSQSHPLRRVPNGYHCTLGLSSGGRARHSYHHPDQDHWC
# T1 sequence (P54289 25-1103, further chain): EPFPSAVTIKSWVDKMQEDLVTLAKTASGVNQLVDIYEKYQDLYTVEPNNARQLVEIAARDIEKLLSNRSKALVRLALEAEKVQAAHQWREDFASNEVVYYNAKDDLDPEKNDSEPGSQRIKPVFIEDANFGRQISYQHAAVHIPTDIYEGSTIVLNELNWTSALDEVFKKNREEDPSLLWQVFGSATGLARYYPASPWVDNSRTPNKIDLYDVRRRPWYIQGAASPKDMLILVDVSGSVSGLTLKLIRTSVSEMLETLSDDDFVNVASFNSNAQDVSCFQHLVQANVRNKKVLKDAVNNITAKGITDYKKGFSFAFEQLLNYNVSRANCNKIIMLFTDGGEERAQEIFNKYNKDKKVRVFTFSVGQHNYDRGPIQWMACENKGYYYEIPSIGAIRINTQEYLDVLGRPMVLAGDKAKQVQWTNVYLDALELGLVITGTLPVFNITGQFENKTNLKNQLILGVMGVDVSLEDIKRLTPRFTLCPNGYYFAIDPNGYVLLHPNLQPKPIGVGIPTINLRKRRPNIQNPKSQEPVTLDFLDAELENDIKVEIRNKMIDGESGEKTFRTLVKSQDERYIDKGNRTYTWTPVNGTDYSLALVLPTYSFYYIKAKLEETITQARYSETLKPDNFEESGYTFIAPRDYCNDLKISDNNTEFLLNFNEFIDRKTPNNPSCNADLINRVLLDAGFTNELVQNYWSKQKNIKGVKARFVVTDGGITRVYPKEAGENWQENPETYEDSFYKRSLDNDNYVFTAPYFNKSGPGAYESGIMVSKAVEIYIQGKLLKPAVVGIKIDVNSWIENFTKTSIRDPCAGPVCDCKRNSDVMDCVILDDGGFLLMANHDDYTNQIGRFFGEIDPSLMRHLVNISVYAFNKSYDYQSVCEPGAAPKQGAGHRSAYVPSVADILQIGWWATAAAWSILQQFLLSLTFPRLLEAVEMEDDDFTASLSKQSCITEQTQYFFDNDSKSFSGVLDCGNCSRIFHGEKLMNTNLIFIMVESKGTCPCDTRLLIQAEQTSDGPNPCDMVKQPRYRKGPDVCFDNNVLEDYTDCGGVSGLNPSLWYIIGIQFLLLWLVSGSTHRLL
# T1 sequence (P54284 whole entry, further chain): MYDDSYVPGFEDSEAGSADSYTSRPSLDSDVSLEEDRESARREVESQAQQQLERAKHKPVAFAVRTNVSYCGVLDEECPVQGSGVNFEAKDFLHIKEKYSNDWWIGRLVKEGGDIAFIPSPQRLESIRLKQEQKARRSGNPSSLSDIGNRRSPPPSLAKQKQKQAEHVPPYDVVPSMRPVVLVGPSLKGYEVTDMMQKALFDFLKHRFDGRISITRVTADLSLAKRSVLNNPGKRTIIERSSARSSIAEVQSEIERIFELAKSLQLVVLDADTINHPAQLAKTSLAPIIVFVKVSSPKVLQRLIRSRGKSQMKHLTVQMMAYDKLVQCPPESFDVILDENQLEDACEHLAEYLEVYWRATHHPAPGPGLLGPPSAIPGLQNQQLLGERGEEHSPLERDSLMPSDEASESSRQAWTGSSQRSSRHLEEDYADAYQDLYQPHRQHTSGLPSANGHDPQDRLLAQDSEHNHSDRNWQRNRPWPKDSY
row,Structure (SMILES),inhibition at 3 µM
1,"Cc1c(-c2ccc(Cl)cc2)c(C(=O)N(C)CCS(=O)(=O)C(C)C)n(Cc2ccccc2)c1C(F)(F)F [SC-130, 1-Benzyl-3-(4-chlorophenyl)-N-[2-(isopropylsulfonyl)-ethyl]-N,4-dimethyl-5-(trifluoromethyl)-1H-pyrrole-2-carboxylic acid amide]",> 95%
2,"Cc1c(-c2ccc(Cl)cc2)c(C(=O)N(C)C2CCS(=O)(=O)CC2)n(Cc2ccccc2)c1C(F)(F)F [SC-131, 1-Benzyl-3-(4-chlorophenyl)-N-(1,1-dioxo-thian-4-yl)-N,4-dimethyl-5-(trifluoromethyl)-1H-pyrrole-2-carboxylic acid amide]",> 95%
3,"CCS(=O)(=O)CCN(C)C(=O)c1c(-c2ccc(Cl)cc2)c(C)c(C(F)(F)F)n1Cc1ccccc1 [SC-132, 1-Benzyl-3-(4-chlorophenyl)-N-[2-(ethylsulfonyl)-ethyl]-N,4-dimethyl-5-(trifluoromethyl)-1H-pyrrole-2-carboxylic acid amide]",> 95%
4,"Cc1c(-c2ccc(Cl)cc2)c(C(=O)N(C)CCC2CCCO2)n(Cc2ccccc2)c1C(F)(F)F (centres unmarked) [SC-133, 1-Benzyl-3-(4-chlorophenyl)-N,4-dimethyl-N-(2-tetrahydro-furan-2-yl-ethyl)-5-(trifluoromethyl)-1H-pyrrole-2-carboxylic acid amide]",> 95%
5,"Cc1c(-c2ccc(Cl)cc2)c(C(=O)N(C)CC2CCCO2)n(Cc2ccccc2)c1C(F)(F)F (centres unmarked) [SC-134, 1-Benzyl-3-(4-chlorophenyl)-N,4-dimethyl-N-(tetrahydro-furan-2-yl-methyl)-5-(trifluoromethyl)-1H-pyrrole-2-carboxylic acid amide]",> 95%
6,"Cc1c(-c2ccc(Cl)cc2)c(C(=O)N(C)CC2CCC[C@@H]2O)n(Cc2ccccc2)c1C(F)(F)F (stereo partly drawn) [SC-135, 1-Benzyl-3-(4-chlorophenyl)-N-[[(2S)-2-hydroxy-cyclopentyl]-methyl]-N,4-dimethyl-5-(trifluoromethyl)-1H-pyrrole-2-carboxylic acid amide]",> 95%
7,"Cc1c(-c2ccc(Cl)cc2)c(C(=O)N(C)CC2CCC[C@H]2O)n(Cc2ccccc2)c1C(F)(F)F (stereo partly drawn) [SC-136, 1-Benzyl-3-(4-chlorophenyl)-N-[[(2R)-2-hydroxy-cyclopentyl]-methyl]-N,4-dimethyl-5-(trifluoromethyl)-1H-pyrrole-2-carboxylic acid amide]",> 95%
8,"Cc1c(-c2ccc(Cl)cc2)c(C(=O)N2CC(S(C)(=O)=O)C2)n(Cc2ccccc2)c1C(F)(F)F [SC-137, [1-Benzyl-3-(4-chlorophenyl)-4-methyl-5-(trifluoromethyl)-1H-pyrrol-2-yl]-(3-methylsulfonyl-azetidin-1-yl)-methanone]",75 to 95%
9,"Cc1c(-c2ccc(Cl)cc2)c(C(=O)N(C)CC2CCCCO2)n(Cc2ccccc2)c1C(F)(F)F (centres unmarked) [SC-138, 1-Benzyl-3-(4-chlorophenyl)-N,4-dimethyl-N-(tetrahydro-pyran-2-yl-methyl)-5-(trifluoromethyl)-1H-pyrrole-2-carboxylic acid amide]",75 to 95%
10,"Cc1c(-c2ccc(Cl)cc2)c(C(=O)N(C)CC(C)(C)CN(C)CCN2CCCC2)n(Cc2ccccc2)c1C(F)(F)F [SC-139, 1-Benzyl-3-(4-chlorophenyl)-N-[2,2-dimethyl-3-[methyl-(2-pyrrolidin-1-yl-ethyl)-amino]-propyl]-N,4-dimethyl-5-(trifluoromethyl)-1H-pyrrole-2-carboxylic acid amide]",> 95%
11,"Cc1cc(CN(C)C(=O)c2c(-c3ccc(Cl)cc3)c(C)c(C(F)(F)F)n2Cc2ccccc2)on1 [SC-140, 1-Benzyl-3-(4-chlorophenyl)-N,4-dimethyl-N-[(3-methyl-isoxazol-5-yl)-methyl]-5-(trifluoromethyl)-1H-pyrrole-2-carboxylic acid amide]",> 95%
12,"Cc1c(-c2ccc(Cl)cc2)c(C(=O)N(C)C(C)CS(C)(=O)=O)n(Cc2ccccc2)c1C(F)(F)F (centres unmarked) [SC-141, 1-Benzyl-3-(4-chlorophenyl)-N,4-dimethyl-N-(1-methyl-2-methylsulfonyl-ethyl)-5-(trifluoromethyl)-1H-pyrrole-2-carboxylic acid amide]",> 95%
13,"Cc1cc(CN(C)C(=O)c2c(-c3ccc(Cl)cc3)c(C)c(C(F)(F)F)n2Cc2ccccc2)no1 [SC-142, 1-Benzyl-3-(4-chlorophenyl)-N,4-dimethyl-N-[(5-methyl-isoxazol-3-yl)-methyl]-5-(trifluoromethyl)-1H-pyrrole-2-carboxylic acid amide]",> 95%
14,"Cc1nnc(CN(C)C(=O)c2c(-c3ccc(Cl)cc3)c(C)c(C(F)(F)F)n2Cc2ccccc2)o1 [SC-143, 1-Benzyl-3-(4-chlorophenyl)-N,4-dimethyl-N-[(5-methyl-[1,3,4]oxadiazol-2-yl)-methyl]-5-(trifluoromethyl)-1H-pyrrole-2-carboxylic acid amide]",> 95%
15,"Cc1c(-c2ccc(Cl)cc2)c(C(=O)N(C)Cc2ccncn2)n(Cc2ccccc2)c1C(F)(F)F [SC-144, 1-Benzyl-3-(4-chlorophenyl)-N,4-dimethyl-N-(pyrimidin-4-yl-methyl)-5-(trifluoromethyl)-1H-pyrrole-2-carboxylic acid amide]",> 95%
16,"COC1CCN(C(=O)c2c(-c3ccc(Cl)cc3)c(C)c(C(F)(F)F)n2Cc2ccccc2)CC1 [SC-145, [1-Benzyl-3-(4-chlorophenyl)-4-methyl-5-(trifluoromethyl)-1H-pyrrol-2-yl]-(4-methoxy-piperidin-1-yl)-methanone]",> 95%
17,"Cc1c(-c2ccc(Cl)cc2)c(C(=O)N(C)Cc2cnccn2)n(Cc2ccccc2)c1C(F)(F)F [SC-146, 1-Benzyl-3-(4-chlorophenyl)-N,4-dimethyl-N-(pyrazin-2-yl-methyl)-5-(trifluoromethyl)-1H-pyrrole-2-carboxylic acid amide]",75 to 95%
18,"Cc1c(-c2ccc(Cl)cc2)c(C(=O)N(C)Cc2ccnc(N(C)C)n2)n(Cc2ccccc2)c1C(F)(F)F [SC-147, 1-Benzyl-3-(4-chlorophenyl)-N-[(2-dimethylamino-pyrimidin-4-yl)-methyl]-N,4-dimethyl-5-(trifluoromethyl)-1H-pyrrole-2-carboxylic acid amide]",75 to 95%
19,"Cc1c(-c2ccc(Cl)cc2)c(C(=O)N(C)Cc2nccn2C)n(Cc2ccccc2)c1C(F)(F)F [SC-148, 1-Benzyl-3-(4-chlorophenyl)-N,4-dimethyl-N-[(1-methyl-1H-imidazol-2-yl)-methyl]-5-(trifluoromethyl)-1H-pyrrole-2-carboxylic acid amide]",> 95%
20,"Cc1c(-c2ccc(Cl)cc2)c(C(=O)N(C)C(C)C)n(Cc2ccccc2)c1C(F)(F)F [SC-149, 1-Benzyl-3-(4-chlorophenyl)-N-isopropyl-N,4-dimethyl-5-(trifluoromethyl)-1H-pyrrole-2-carboxylic acid amide]",> 95%
21,"Cc1c(-c2ccc(Cl)cc2)c(C(=O)NC(C)C)n(Cc2ccccc2)c1C(F)(F)F [SC-150, 1-Benzyl-3-(4-chlorophenyl)-N-isopropyl-4-methyl-5-(trifluoromethyl)-1H-pyrrole-2-carboxylic acid amide]",75 to 95%
22,"Cc1cnc(CN(C)C(=O)c2c(-c3ccc(Cl)cc3)c(C)c(C(F)(F)F)n2Cc2ccccc2)cn1 [SC-151, 1-Benzyl-3-(4-chlorophenyl)-N,4-dimethyl-N-[(5-methyl-pyrazin-2-yl)-methyl]-5-(trifluoromethyl)-1H-pyrrole-2-carboxylic acid amide]",> 95%
23,"Cc1c(-c2ccc(Cl)cc2)c(C(=O)N(C)Cc2cnc(N(C)C)nc2)n(Cc2ccccc2)c1C(F)(F)F [SC-152, 1-Benzyl-3-(4-chlorophenyl)-N-[(2-dimethylamino-pyrimidin-5-yl)-methyl]-N,4-dimethyl-5-(trifluoromethyl)-1H-pyrrole-2-carboxylic acid amide]",> 95%
24,"Cc1c(-c2ccc(Cl)cc2F)c(C(=O)N2CC(O)C2)n(Cc2ccccc2)c1C(F)(F)F [SC-154, [1-Benzyl-3-(4-chloro-2-fluoro-phenyl)-4-methyl-5-(trifluoromethyl)-1H-pyrrol-2-yl]-(3-hydroxy-azetidin-1-yl)-methanone]",75 to 95%
25,"Cc1c(-c2ccc(Cl)cc2F)c(C(=O)N2CCOC(C)(C)C2)n(Cc2ccccc2)c1C(F)(F)F [SC-155, [1-Benzyl-3-(4-chloro-2-fluoro-phenyl)-4-methyl-5-(trifluoromethyl)-1H-pyrrol-2-yl]-(2,2-dimethyl-morpholin-4-yl)-methanone]",> 95%
26,"Cc1c(-c2ccc(Cl)cc2F)c(C(=O)N(C)C2CCOCC2)n(Cc2ccccc2)c1C(F)(F)F [SC-156, 1-Benzyl-3-(4-chloro-2-fluoro-phenyl)-N,4-dimethyl-N-tetrahydro-pyran-4-yl-5-(trifluoromethyl)-1H-pyrrole-2-carboxylic acid amide]",> 95%
27,"Cc1c(-c2ccc(Cl)cc2F)c(C(=O)N[C@H](C)C(C)(C)C)n(Cc2ccccc2)c1C(F)(F)F [SC-158, 1-Benzyl-3-(4-chloro-2-fluoro-phenyl)-4-methyl-5-(trifluoromethyl)-N-[(1R)-1,2,2-trimethyl-propyl]-1H-pyrrole-2-carboxylic acid amide]",75 to 95%
28,"Cc1c(-c2ccc(Cl)cc2F)c(C(=O)N(C)C2CC2)n(Cc2ccccc2)c1C(F)(F)F [SC-159, 1-Benzyl-3-(4-chloro-2-fluoro-phenyl)-N-cyclopropyl-N,4-dimethyl-5-(trifluoromethyl)-1H-pyrrole-2-carboxylic acid amide]",> 95%
29,"Cc1c(-c2ccc(Cl)cc2F)c(C(=O)N(C)C2CCS(=O)(=O)CC2)n(Cc2ccccc2)c1C(F)(F)F [SC-160, 1-Benzyl-3-(4-chloro-2-fluoro-phenyl)-N-(1,1-dioxo-thian-4-yl)-N,4-dimethyl-5-(trifluoromethyl)-1H-pyrrole-2-carboxylic acid amide]",> 95%
